Source: DBAASP
In brackets after ≈: the same amount, converted by molar mass.

Assays:
Assay in all cases: ≥ marks a high value that may be exact or a test limit, other limits are often not marked, values filed in µg/mL are converted to µM
[1] = system: Staphylococcus epidermidis
[2] = system: Staphylococcus aureus
[3] = system: Shigella dysenteriae
[4] = system: Pseudomonas aeruginosa
[5] = system: Micrococcus luteus
[6] = system: Salmonella typhimurium
[7] = system: Klebsiella pneumoniae
[8] = system: Escherichia coli
[9] = system: Proteus mirabilis
[10] = system: Bacillus subtilis
[11] = system: Staphylococcus aureus ATCC 25923
[12] = system: Acinetobacter baumannii
[13] = system: Escherichia coli ATCC 25922
[14] = system: Pseudomonas aeruginosa ATCC 9027
[15] = system: Klebsiella pneumoniae ATCC 700603
[16] = system: Bacillus subtilis ATCC 23857
[17] = system: Staphylococcus epidermidis ATCC 12228
[18] = system: Pseudomonas aeruginosa ATCC 27853
[19] = system: Acinetobacter baumannii ATCC 19606
[20] = system: Enterococcus faecalis ATCC 29212

CC(C)C[C@H](NC(=O)[C@@H](NC(=O)[C@H](CCCCN)NC(=O)[C@H](CO)NC(=O)[C@H](C)NC(=O)[C@@H](NC(=O)[C@H](CCCCN)NC(=O)[C@H](Cc1ccccc1)NC(=O)[C@H](CC(C)C)NC(=O)[C@H](C)NC(=O)CNC(=O)[C@H](CC(C)C)NC(=O)[C@H](C)N)C(C)C)C(C)C)C(=O)O [ALGALFKVASKVL]
MIC [1]: ≥ 38 µM
MIC [2]: 9.49 µM (≈ 12.5 µg/mL)
MIC [3]: ≥ 152 µM
MIC [4]: 152 µM (≈ 200 µg/mL)
MIC [5]: ≥ 152 µM
MIC [6]: ≥ 152 µM
MIC [7]: 76 µM (≈ 100 µg/mL)
MIC [8]: 38 µM (≈ 50 µg/mL)
MIC [9]: ≥ 152 µM
MIC [10]: 19 µM (≈ 25 µg/mL)

CC[C@H](C)[C@H](NC(=O)[C@H](CC(C)C)NC(=O)[C@H](CCC(N)=O)NC(=O)[C@@H](NC(=O)[C@H](CC(C)C)NC(=O)[C@H](CCCN=C(N)N)NC(=O)[C@H](CCCN=C(N)N)NC(=O)[C@@H](NC(=O)[C@H](C)NC(=O)[C@H](CCCCN)NC(=O)[C@H](CCCN=C(N)N)NC(=O)[C@H](CC(C)C)NC(=O)[C@@H](NC(=O)[C@H](C)NC(=O)[C@@H](NC(=O)[C@H](C)N)[C@@H](C)O)[C@@H](C)CC)[C@@H](C)O)C(C)C)C(=O)O [ATAILRKATRRLVQLI]
MIC [11]: > 25 µM
MIC [12]: 25 µM (≈ 45.6 µg/mL)
MIC [13]: > 25 µM
MIC [14]: > 25 µM
MIC [15]: > 25 µM

CC(C)C[C@H](NC(=O)[C@H](C)NC(=O)CNC(=O)[C@H](CC(C)C)NC(=O)[C@@H](N)Cc1ccccc1)C(=O)N[C@@H](Cc1ccccc1)C(=O)N[C@@H](Cc1c[nH]c2ccccc12)C(=O)N[C@H](C(=O)N[C@@H](C)C(=O)N[C@@H](CO)C(=O)N[C@@H](CCCCN)C(=O)O)C(C)C [FLGALFWVASK]
MIC [1]: ≥ 161 µM
MIC [2]: > 161 µM
MIC [3]: ≥ 161 µM
MIC [4]: > 161 µM
MIC [5]: ≥ 161 µM
MIC [6]: ≥ 161 µM
MIC [7]: > 161 µM
MIC [8]: > 161 µM
MIC [9]: ≥ 161 µM
MIC [10]: ≥ 161 µM

CC[C@H](C)[C@H](NC(=O)[C@H](CCCCN)NC(=O)[C@@H](NC(=O)[C@@H](NC(=O)[C@H](CCCCN)NC(=O)[C@@H](NC(=O)[C@@H](NC(=O)CNC(=O)[C@H](C)NC(=O)[C@@H](NC(=O)[C@@H](NC(=O)CN)[C@@H](C)CC)[C@@H](C)CC)[C@@H](C)CC)[C@@H](C)CC)[C@@H](C)CC)[C@@H](C)CC)C(N)=O [GIIAGIIKIIKI]
MIC [16]: ≥ 128 µM
MIC [13]: > 128 µM

CC[C@H](C)[C@H](NC(=O)CNC(=O)[C@H](CCCN=C(N)N)NC(=O)[C@H](CCCCN)NC(=O)[C@@H](NC(=O)CNC(=O)[C@H](CCCN=C(N)N)NC(=O)[C@H](CCCCN)NC(=O)[C@@H](NC(=O)CN)[C@@H](C)CC)[C@@H](C)CC)C(=O)N[C@@H](CCCCN)C(=O)N[C@@H](CCCN=C(N)N)C(N)=O [GIKRGIKRGIKR]
MIC [16]: ≥ 128 µM
MIC [13]: > 128 µM

CC[C@H](C)[C@H](NC(=O)CN)C(=O)N[C@@H](CCCN=C(N)N)C(=O)N[C@@H](CCCN=C(N)N)C(=O)NCC(=O)N[C@H](C(=O)N[C@H](C(=O)N[C@@H](CCCCN)C(=O)N[C@H](C(=O)N[C@H](C(=O)N[C@@H](CCCCN)C(=O)N[C@@H](CCCN=C(N)N)C(N)=O)[C@@H](C)CC)[C@@H](C)CC)[C@@H](C)CC)[C@@H](C)CC [GIRRGIIKIIKR]
MIC [16]: ≥ 32 µM
MIC [13]: 128 µM (≈ 182 µg/mL)

CC(C)C[C@H](NC(=O)CN)C(=O)N[C@@H](CC(C)C)C(=O)N[C@@H](CCCCN)C(=O)N[C@@H](CCCN=C(N)N)C(=O)N[C@@H](CC(C)C)C(=O)N[C@@H](CCCCN)C(=O)N[C@H](C(=O)N[C@@H](CC(C)C)C(=O)N[C@@H](C)C(N)=O)[C@@H](C)O [GLLKRLKTLA]
MIC [11]: 256 µM (≈ 285 µg/mL)
MIC [17]: 64 µM (≈ 71.1 µg/mL)
MIC [16]: ≥ 32 µM
MIC [18]: 64 µM (≈ 71.1 µg/mL)
MIC [13]: 256 µM (≈ 285 µg/mL)
MIC [19]: > 512 µM
MIC [20]: > 512 µM
MIC [15]: 256 µM (≈ 285 µg/mL)
